In patent EP0347459A1, “CEPHALOSPORIN COMPOUNDS OR THEIR SALTS, PROCESS FOR THEIR PREPARATION, AND PHARMACEUTICAL COMPOSITIONS” (TEIJIN LIMITED, priority 1987, dated 1988):
In brackets after ≈: the same amount, converted by molar mass.

What was measured:
Format in all cases: cell-based
[1] = test system: K.pneumoniae PCI602; assay: In vitro antibacterial activity, agar disc dilution method; settings: Klebsiella pneumoniae, PCI602, 16 h, read-out: minimum growth inhibitory concentration (MIC)
Description: (§1) An in vitro antibacterial activity was measured by an agar disc dilution method.
(§2) Varied test bacteria were cultivated overnight in triptophane-soybroth. A Mueller Hinton agar containing the compound of this invention in varied concentrations was streaked with one platinum loopful of each of the bacteria (number of living cells 10^6/ml).

[2] = test system: S.pyogenes Cook; assay: as above; settings: Streptococcus pyogenes, 16 h, read-out: minimum growth inhibitory concentration (MIC)
Description: as §1, §2

[3] = test system: S.aureus 209p NIHJ JC1; assay: as above; settings: Staphylococcus aureus, 16 h, read-out: minimum growth inhibitory concentration (MIC)
Description: as §1, §2

[4] = test system: S. aureus Terajima; assay: as above; settings: Staphylococcus aureus, 16 h, read-out: minimum growth inhibitory concentration (MIC)
Description: as §1, §2

[5] = test system: E.cloacae 963; assay: as above; settings: Enterobacter cloacae, 963, 16 h, read-out: minimum growth inhibitory concentration (MIC)
Description: as §1, §2

[6] = test system: M.luteus ATCC9341; assay: as above; settings: Micrococcus luteus, ATCC9341, 16 h, read-out: minimum growth inhibitory concentration (MIC)
Description: as §1, §2

[7] = test system: P.aeruginosa IFO3445; assay: as above; settings: Pseudomonas aeruginosa, IFO3445, 16 h, read-out: minimum growth inhibitory concentration (MIC)
Description: as §1, §2

[8] = test system: P.vulgalis OX-11; assay: as above; settings: 16 h, read-out: minimum growth inhibitory concentration (MIC)
Description: as §1, §2

[9] = test system: S.enteritidis G14; assay: as above; settings: Salmonella enterica, ENTERITIDIS, 16 h, read-out: minimum growth inhibitory concentration (MIC)
Description: as §1, §2

[10] = test system: P.aeruginosa PAD1; assay: as above; settings: Pseudomonas aeruginosa, PAD1, 16 h, read-out: minimum growth inhibitory concentration (MIC)
Description: as §1, §2

[11] = test system: S.marcescens IAM1184; assay: as above; settings: Serratia marcescens, IAM1184, 16 h, read-out: minimum growth inhibitory concentration (MIC)
Description: as §1, §2

[12] = test system: P.aeruginosa NCTC1049; assay: as above; settings: Pseudomonas aeruginosa, NCTC1049, 16 h, read-out: minimum growth inhibitory concentration (MIC)
Description: as §1, §2

[13] = test system: S.typhi 901; assay: as above; settings: Salmonella enterica, 16 h, read-out: minimum growth inhibitory concentration (MIC)
Description: as §1, §2

[14] = test system: P.morganii IFO3445; assay: as above; settings: Morganella morganii, IFO3445, 16 h, read-out: minimum growth inhibitory concentration (MIC)
Description: as §1, §2

[15] = test system: P.aeruginosa N-2; assay: MIC values of 10 kinds of Pseudomonas aeruginosa; settings: N2, 16 h, read-out: MIC values
Description: as §1, §2
(§3) MIC values of 10 kinds of Pseudomonas aeruginosa were measured for Compound III, Comparative Example B and CAZ.

[16] = test system: P.aeruginosa NO. 97; assay: MIC values of 10 kinds of Pseudomonas aeruginosa; settings: NO.97, 16 h, read-out: MIC values
Description: as §1, §2, §3

[17] = test system: P.aeruginosa ATCC27318; assay: MIC values of 10 kinds of Pseudomonas aeruginosa; settings: ATCC27318, 16 h, read-out: MIC values
Description: as §1, §2, §3

[18] = test system: P.aeruginosa Tid53; assay: MIC values of 10 kinds of Pseudomonas aeruginosa; settings: TID53, 16 h, read-out: MIC values
Description: as §1, §2, §3

[19] = test system: P.aeruginosa N-26; assay: MIC values of 10 kinds of Pseudomonas aeruginosa; settings: N26, 16 h, read-out: MIC values
Description: as §1, §2, §3

[20] = test system: P.aeruginosa 88; assay: MIC values of 10 kinds of Pseudomonas aeruginosa; settings: Pseudomonas aeruginosa, 88, 16 h, read-out: MIC values
Description: as §1, §2, §3

[21] = test system: P.aeruginosa 0-11; assay: MIC values of 10 kinds of Pseudomonas aeruginosa; settings: Pseudomonas aeruginosa, 011, 16 h, read-out: MIC values
Description: as §1, §2, §3

[22] = test system: P.aeruginosa 64; assay: MIC values of 10 kinds of Pseudomonas aeruginosa; settings: Pseudomonas aeruginosa, 64, 16 h, read-out: MIC values
Description: as §1, §2, §3

[23] = test system: P.aeruginosa N-3; assay: MIC values of 10 kinds of Pseudomonas aeruginosa; settings: N3, 16 h, read-out: MIC values
Description: as §1, §2, §3

[24] = test system: P.aeruginosa ATCC27577; assay: MIC values of 10 kinds of Pseudomonas aeruginosa; settings: ATCC27577, 16 h, read-out: MIC values
Description: as §1, §2, §3

## CC(C)(O/N=C(\C(=O)N[C@@H]1C(=O)N2C(C(=O)[O-])=C(C[n+]3ccccc3)CS[C@H]12)c1csc(N)n1)C(=O)O [CAZ, (6R,7R)-7-[(Z)-2-(2-amino-1,3-thiazol-4-yl)-2-(2-carbcxypropyl-2-yloxyimino)acetamide]-3-(l-pyridinium)methyl-3-cephem-4-carboxylate, reference compound]
[1]
  MIC: 0.025 µg/mL (≈ 0.0457 µM)
[2]
  MIC: 0.4 µg/mL (≈ 0.732 µM)
[3]
  MIC: 6.3 µg/mL (≈ 11.5 µM)
[4]
  MIC: 1.6 µg/mL (≈ 2.93 µM)
[5]
  MIC: 0.05 µg/mL (≈ 0.0915 µM)
[6]
  MIC: 0.4 µg/mL (≈ 0.732 µM)
[7]
  MIC: 0.4 µg/mL (≈ 0.732 µM)
[8]
  MIC: 0.005 µg/mL (≈ 0.00915 µM)
[9]
  MIC: 0.005 µg/mL (≈ 0.00915 µM)
[10]
  MIC: 0.4 µg/mL (≈ 0.732 µM)
[11]
  MIC: 0.025 µg/mL (≈ 0.0457 µM)
[12]
  MIC: 0.4 µg/mL (≈ 0.732 µM)
[13]
  MIC: 0.1 µg/mL (≈ 0.183 µM)
[14]
  MIC: 0.0125 µg/mL (≈ 0.0229 µM)
[15]
  MIC: 0.8 µg/mL (≈ 1.46 µM)
[16]
  MIC: 3.1 µg/mL (≈ 5.67 µM)
[17]
  MIC: 1.6 µg/mL (≈ 2.93 µM)
[18]
  MIC: 6.3 µg/mL (≈ 11.5 µM)
[19]
  MIC: 1.6 µg/mL (≈ 2.93 µM)
[20]
  MIC: 0.8 µg/mL (≈ 1.46 µM)
[21]
  MIC: 3.1 µg/mL (≈ 5.67 µM)
[22]
  MIC: 3.1 µg/mL (≈ 5.67 µM)
[23]
  MIC: 1.6 µg/mL (≈ 2.93 µM)
[24]
  MIC: 0.2 µg/mL (≈ 0.366 µM)
